Read-outs that look alike come from different tables or passages of the source. No end group written: not given here.
Assays:
Red blood cells = assay: Red blood cell lysis; type: cell-based; conditions: 1% (v/v) red blood cells in PBS; peptides 0.3125-80 μM
Method: Red blood cells were prepared from fresh whole blood. Red blood cells were diluted to 1% (v/v) with PBS and 0.1 mL aliquots added to a 96 well microtitre plate. Venom and venom peptides were added in 5 μL of normal saline. Whole ant venom concentration (final): 80, 40, 20, 10, 5, 2.5, 1.25, 0.625, 0.3125 4μg/mL. Venom peptide concentration (final): 80, 40, 20, 10, 5, 2.5, 1.25, 0.625, 0.3125 μM.

EBV-transformed B-cells = assay: Flow cytometry cell viability (propidium iodide exclusion); type: cell-based, human; conditions: 5 μM, treated for 5 minutes; untreated control about 15% permeable
Method: (§1) Cell proliferation and flow cytometry have been used to determine the cytotoxic effects on cells. Cell proliferation involves growing cells to log-phase growth and adding Pilosulin 1 at different final peptide concentrations and ^3 H-methyl thymidine at the same time. The cells are incubated at 37° C. for 16 hours, harvested, lysed and washed and the cells liquid scintillation counted. Flow cytometry employs the exclusion of propidium iodide from cells as an index of their viability. In experiments where fluorescent labelled monoclonal antibodies recognising cell specific markers were used, exclusion of 7-actinomycin D was used as the index of cell viability. In these latter experiments cells were incubated with the fluorescent antibodies and then washed to remove unbound antibodies. The treated cells were stored on ice and Pilosulin 1 added 5 minutes prior to flow cytometric measurement.
Flow cytometry can measure cell viability by their ability to exclude a fluorescent dye such as propidium iodide or 7-actinomycin D. EBV-transformed B-cells were cultured to log-phase growth and venom and venom peptides added. […] Cells were treated for 5 minutes with Pilosulin 1, Pilosulin 2 and melittin over a concentration range of 0.1 to 10 μM and then cell numbers were measured in the flow cytometer.

[1] = tested on: Antibody-labelled (CD3-FITC) white blood cells (T-cell); assay: Kinetics of cell killing at different temperatures (7-AAD, flow cytometry); type: cell-based; conditions: 3 μM melittin
Method: The kinetics of Pilosulin 1 and melittin cell killing at different temperatures were investigated. Antibody-labelled (CD3-FITC) white blood cells were incubated with 7-AAD (4 μg/mL) and either 1.5 μM Pilosulin 1 or 3 μM melittin. Three tubes were prepared for each peptide and the tubes were incubated at either 0° C. (circles), room temperature (triangles), or 37° C. (diamonds). Samples of each tube were analysed on a flow cytometer at time zero and thereafter at 2, 5 10 and 15 minutes.

[2] = tested on: Epstein Barr-transformed human B-cells; assay: Cell proliferation (3H-methyl-thymidine); type: cell-based
Method: as §1
Epstein Barr-transformed human B-cells grown to log phase. One hundred […] of cells (10^5 cells) were placed in the wells of microtitre plates. Venom and venom peptides added to the wells in […] to give final concentrations used in the red cell lysis experiment. One μCi of ^3 H-methyl-thymidine was added to the wells and the plates incubated overnight at 37° C. Cells harvested 17 hr later and counted.

granulocyte population = assay: Relative cytotoxicity for leucocyte components, flow cytometry (7-actinomycin D uptake); type: cell-based
Method: as §1
The relative cytotoxicity of Pilosulin 1 for the different components of the leucocyte population was studied and the results are shown in FIG. 3.

[3] = tested on: solid tumour cell lines including a breast cancer, a brain tumour and a kidney cell tumour line; assay: Cytotoxicity for solid tumour cell lines; type: cell-based
Method: as §1

[4] = tested on: normal blood cells, in particular, lymphocytes monocytes and natural killer cells; assay: Cytotoxicity for normal blood cells; type: cell-based
Method: as §1

[5] = tested on: cancer cells of myeloid and lymphoid origin; assay: Cytotoxicity towards cancer cells; type: cell-based; conditions: in particular rapidly dividing cancer cells of myeloid and lymphoid origin
cells = assay: Cytotoxicity to cells (cell proliferation and flow cytometry); type: cell-based; conditions: cells tested
Method: as §1

CC[C@H](C)[C@H](NC(=O)CN)C(=O)NCC(=O)N[C@@H](C)C(=O)N[C@H](C(=O)N[C@@H](CC(C)C)C(=O)N[C@@H](CCCCN)C(=O)N[C@H](C(=O)N[C@@H](CC(C)C)C(=O)N[C@H](C(=O)N[C@H](C(=O)NCC(=O)N[C@@H](CC(C)C)C(=O)N1CCC[C@H]1C(=O)N[C@@H](C)C(=O)N[C@@H](CC(C)C)C(=O)N[C@H](C(=O)N[C@@H](CO)C(=O)N[C@@H](Cc1c[nH]c2ccccc12)C(=O)N[C@H](C(=O)N[C@@H](CCCCN)C(=O)N[C@@H](CCCNC(=N)N)C(=O)N[C@@H](CCCCN)C(=O)N[C@@H](CCCNC(=N)N)C(=O)N[C@@H](CCC(N)=O)C(=O)N[C@@H](CCC(N)=O)C(N)=O)[C@@H](C)CC)[C@@H](C)CC)[C@@H](C)O)[C@@H](C)O)C(C)C)C(C)C [Melittin]
efficiency on a molar basis in the lysis of red blood cells (Red blood cells): most efficient | % Viable Cells (EBV-transformed B-cells): 53.5% | cells killed ([1]; 0° C., 10 minutes): 25% | cells killed ([1]; 37° C., 2 minutes): all cells were killed | cells killed ([1]; room temperature, 2 minutes): 85% | cells killed ([1]; room temperature, 5 minutes): killed all cells

GLGSVFGRLARILGRVIPKVAKKLGPKVAKVLPKVMKEAIPMAVEMAKSQEEQQPQ [Pilosulin 1]
cytotoxicity for proliferating Epstein-Barr Virus transformed B-cells [2]: cytotoxic | effectiveness as a cytotoxin at 50% cell viability (relative) ([2]; 3H-methyl-thymidine, overnight at 37° C., comparator not named): approximately 4 times | cytotoxicity for granulocytes (granulocyte population): resistant | cytotoxicity for solid tumour cell lines [3]: cytotoxic | cytotoxicity for normal blood cells [4]: low | cytotoxicity for normal blood cells ([4]; listed as Pilostilin 1): cytotoxic | cytotoxicity towards cancer cells [5]: potent cytotoxicity

KLGPKVAKVLPKVMKEAIPMAVEMAKSQEEQQPQ [peptide 2]
cytotoxicity to cells (cells): no detectable cytotoxicity
